The text below walks through data of patent US20140155376A1, “PYRROLOPYRAZINE KINASE INHIBITORS” (Hoffmann-La Roche Inc., priority 2010, published 2014).

Each structure is given as a SMILES string. pIC50: −log10 of the molar value.

T1 sequence (P52333 810-1124): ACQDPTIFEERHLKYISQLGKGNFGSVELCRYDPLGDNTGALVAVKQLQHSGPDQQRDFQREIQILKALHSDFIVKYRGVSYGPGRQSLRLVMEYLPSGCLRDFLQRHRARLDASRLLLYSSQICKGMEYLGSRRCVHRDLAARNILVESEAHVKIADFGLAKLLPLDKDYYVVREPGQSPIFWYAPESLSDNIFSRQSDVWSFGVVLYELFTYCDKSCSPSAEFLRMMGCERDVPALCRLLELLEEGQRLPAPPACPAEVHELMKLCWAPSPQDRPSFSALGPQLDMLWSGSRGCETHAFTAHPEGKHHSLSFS

The first experiment addresses T1, JAK3 (recombinant human kinase domain; h-jak3(810-1124)) (Homo sapiens, UniProt P52333).
T1 construct: h-jak3(810- 1124)-sf9-c; made in house; host or cells: Sf9 insect cells
Description: Determination of IC50 of Janus Kinase (JAK) inhibition: JAK3, radioactive end-point assay with 33P-ATP. The experiment is classed as biochemical.
Settings: not given
As a reminder, the pIC50 is the IC50 on a negative log10 scale, so that one unit is a factor of ten. Regarding `CC(C)NC(=O)c1c[nH]c2ncc(Oc3ccc4c(c3)C=CC4)nc12` [Example I-302, 2-(1H-Inden-5-yloxy)-5H-pyrrolo[2,3-b]pyrazine-7-carboxylic acid isopropylamide], the pIC50 was 6.80.

The experiment is the same for the next values; noted with them: JAK3 kinase domain; ATP 1.5 uM, peptide 50 uM, 20 minutes, room temperature, 10% DMSO; read-out: Ic50 h-jak3(810-1124)-sf9-c:no additive.
Regarding `C=Cc1cnc2[nH]cc(C(=O)NCC(C)(C)CO)c2n1` [Example I-36, 2-Vinyl-5H-pyrrolo[2,3-b]pyrazine-7-carboxylic acid (3-hydroxy-2,2-dimethyl-propyl)-amide], the pIC50 is 7.47. Same read-out and setting: under `C[C@H](NC(=O)c1c[nH]c2ncc(-c3ccc(C(=O)N4CCC4)s3)nc12)C(C)(C)C` [Example I-180, 2-[5-(Azetidine-1-carbonyl)-thiophen-2-yl]-5H-pyrrolo[2,3-b]pyrazine-7-carboxylic acid ((S)-1,2,2-trimethyl-propyl)-amide] stands 9.49; under `C[C@@H](NC(=O)c1c[nH]c2ncc(C3CC3)nc12)[C@](C)(O)CC#N` [Example I-91, 2-Cyclopropyl-5H-pyrrolo[2,3-b]pyrazine-7-carboxylic acid ((1R,2R)-3-cyano-2-hydroxy-1,2-dimethyl-propyl)-amide], 7.41. On the same count and under the same terms, the figure for `O=C(N[C@@H](CC1CCCCC1)[C@@H](O)[C@@H](O)C1CC1)c1c[nH]c2ncc(C3CC3)nc12` [Example I-88, 2-Cyclopropyl-5H-pyrrolo[2,3-b]pyrazine-7-carboxylic acid ((1S,2R,3S)-1-cyclohexylmethyl-3-cyclopropyl-2,3-dihydroxy-propyl)-amide] is 5.85; for `C[C@H](NC(=O)c1c[nH]c2ncc(-c3ccc(C(=O)NCc4cccnc4)s3)nc12)C(C)(C)C` [Example I-164, 2-{5-[(Pyridin-3-ylmethyl)-carbamoyl]-thiophen-2-yl}-5H-pyrrolo[2,3-b]pyrazine-7-carboxylic acid ((S)-1,2,2-trimethyl-propyl)-amide] it is 9.49; for `Cc1ccc(CNC(=O)c2ccc(-c3cnc4[nH]cc(C(=O)N[C@@H](C)C(C)(C)C)c4n3)s2)o1` [Example I-193, 2-{5-[(5-Methyl-furan-2-ylmethyl)-carbamoyl]-thiophen-2-yl}-5H-pyrrolo[2,3-b]pyrazine-7-carboxylic acid ((S)-1,2,2-trimethyl-propyl)-amide] it is 9.38. For the compound `CCC(=O)N[C@@H]1CCc2ccc(Oc3cnc4[nH]cc(C(=O)NC(C)C)c4n3)cc21` [Example I-282, 2-((R)-3-Propionylamino-indan-5-yloxy)-5H-pyrrolo[2,3-b]pyrazine-7-carboxylic acid isopropylamide], the pIC50 is 6.90. With `O=C(NC(CO)CO)c1c[nH]c2ncc(C3CC3)nc12` [Example I-51, 2-Cyclopropyl-5H-pyrrolo[2,3-b]pyrazine-7-carboxylic acid (2-hydroxy-1-hydroxymethyl-ethyl)-amide], the negative logarithm of the IC50 (pIC50) was 6.38. As to `CC(C)NC(=O)c1c[nH]c2ncc(Oc3ccc4c(c3)[C@H](NC(=O)C(C)(C)C)CC4)nc12` [Example I-285, 2-[(R)-3-(2,2-Dimethyl-propionylamino)-indan-5-yloxy]-5H-pyrrolo[2,3-b]pyrazine-7-carboxylic acid isopropylamide], the pIC50 is 6.63. As for `CC(=O)NC1Cc2ccc(Oc3cnc4[nH]cc(C(=O)NC(C)C)c4n3)cc2C1` (centres unmarked) [Example I-300, 2-(2-Acetylamino-indan-5-yloxy)-5H-pyrrolo[2,3-b]pyrazine-7-carboxylic acid isopropylamide], the negative-log IC50 (pIC50) was 6.70. On the same count and under the same terms, the figure for `CC(C)NC(=O)c1c[nH]c2ncc(Oc3ccc4c(c3)[C@H](N)CC4)nc12` [Example I-281, 2-((R)-3-Amino-indan-5-yloxy)-5H-pyrrolo[2,3-b]pyrazine-7-carboxylic acid isopropylamide] is 6.86. `N#CCC(NC(=O)c1c[nH]c2ncc(C3CC3)nc12)C1CC1` (centres unmarked) [Example I-106, 2-Cyclopropyl-5H-pyrrolo[2,3-b]pyrazine-7-carboxylic acid (2-cyano-1-cyclopropyl-ethyl)-amide]: the negative logarithm of the IC50 (pIC50) is 7.83. In the case of `C[C@H](NC(=O)c1c[nH]c2ncc(C3CC3)nc12)C(C)(C)C(F)(F)F` [Example I-54, 2-Cyclopropyl-5H-pyrrolo[2,3-b]pyrazine-7-carboxylic acid ((S)-3,3,3-trifluoro-1,2,2-trimethyl-propyl)-amide], the pIC50 is 8.26.

Consider `CC(C)(CO)CNC(=O)c1c[nH]c2ncc(C(F)(F)F)nc12` [Example I-35, 2-Trifluoromethyl-5H-pyrrolo[2,3-b]pyrazine-7-carboxylic acid (3-hydroxy-2,2-dimethyl-propyl)-amide], for which the pIC50 was 5.98. In the case of `Cc1cc(-c2cnc3[nH]cc(C(=O)N[C@@H](C)C(C)(C)C)c3n2)sc1C(=O)NC1CCOCC1` [Example I-219, 2-[4-Methyl-5-(tetrahydro-pyran-4-ylcarbamoyl)-thiophen-2-yl]-5H-pyrrolo[2,3-b]pyrazine-7-carboxylic acid ((S)-1,2,2-trimethyl-propyl)-amide], the pIC50 was 9.62. The same measure, in the same setting: under `C[C@H](NC(=O)c1c[nH]c2ncc(-c3ccc(C(=O)NC4CCS(=O)(=O)CC4)s3)nc12)C(C)(C)C` [Example I-212, 2-[5-(1,1-Dioxo-hexahydro-1λ^6-thiopyran-4-ylcarbamoyl)-thiophen-2-yl]-5H-pyrrolo[2,3-b]pyrazine-7-carboxylic acid ((S)-1,2,2-trimethyl-propyl)-amide] stands 9.80.
